US20250115571A1, “OXOPIPERAZINE DERIVATIVES” (Inthera Bioscience AG, priority 2017, published 2025)

Assays:
[1] = system: SiHa human HPV16-positive cervical cancer cells; assay: Cell-derived xenograft mouse model for cervical cancer (SiHa CDX); assay type: in vivo; conditions: p.o.; for Tumor Size day 37: SiHa CDX, female BALB/c nude mice, Mean ± SEM; for T/C: day 37, tumor-to-control ratio (volume/volume)
Method: (§1) Female BALB/c nude mice (7-9 weeks of age) were injected with SiHa human HPV16-positive (Human Papillomavirus type 16) cervical cancer cells. The cells were inoculated subcutaneously into the left flank of 48 mice. When tumors reached a mean volume of approximately 111 mm^3, mice were randomly assigned to eight treatment groups of each six mice (TABLE 18). Body weights were measured three times weekly prior to the initiation of dosing and daily thereafter. Tumor burden was assessed by caliper measurement twice weekly. Dosing breaks were applied when tolerability issues arose (body weight loss>10%). The study was terminated four weeks post first dosing. The experiment was performed in the Crown Bioscience Ltd. (Beijing) testing facility (Ground Floor, Light Muller Building, Changping Sector of Zhongguancun Scientific Park, No. 21 Huoju Road, Changping District, Beijing, CHIN).

[2] = system: HPV-positive head-and-neck squamous cell carcinoma model #HN10309; assay: Patient-derived xenograft mouse model for head-and-neck squamous cell carcinoma (HN10309); assay type: in vivo; conditions: p.o. BID, 30 mg/kg, female NMRI nu/nu mice
Method: Female NMRI nu/nu mice were injected with cells derived from a human head-and-neck cancer (model #HN10309, an HPV-positive head-and-neck squamous cell carcinoma, EPO-GmbH, Berlin, Germany). The cells were inoculated subcutaneously into the left flank of 24 mice. Thirty-three days later tumors reached a mean volume of approximately 116 mm^3, and mice were randomly assigned to three treatment groups of each eight mice (TABLE 21). Body weights were measured twice weekly. Tumor burden was assessed by caliper measurement twice weekly. Dosing breaks were applied when tolerability issues arose (body weight loss>[…]). The study was terminated four weeks post first dosing. The experiment was performed in the EPO animal testing facility (Experimental Pharmacology and Oncology GmbH, 13125 Berlin-Buch, Germany).

[3] = system: HPV-positive head-and-neck squamous cell carcinoma model #HN11303; assay: Patient-derived xenograft mouse model for head-and-neck squamous cell carcinoma (HN11303); assay type: in vivo; conditions: for mice tumor-free at the end of the observation period: HN11303 PDX, variable dosages (TABLE 23), all sixteen mice of the two groups; for mean TV: subcutaneous HPV-positive HNSCC model, female NMRI nu/nu mice
Method: Female NMRI nu/nu mice were injected with cells derived from a human head-and-neck cancer (model #HN11303, an HPV-positive head-and-neck squamous cell carcinoma, EPO-GmbH, Berlin, Germany). The cells were inoculated subcutaneously into the left flank of 40 mice. Thirteen days later tumors reached a mean volume of approximately 107 mm^3, and mice were randomly assigned to five treatment groups of each eight mice (TABLE 23). Body weights were measured twice weekly. Tumor burden was assessed by caliper measurement twice weekly. Dosing breaks were applied when tolerability issues arose (body weight loss>10). The study was terminated five weeks post first dosing. The experiment was performed in the EPO animal testing facility (Experimental Pharmacology and Oncology GmbH, 13125 Berlin-Buch, Germany).

[4] = system: patient-derived castration-resistant prostate tumor cells (model #PR6511); assay: Castration resistant prostate cancer patient-derived xenograft (CRPC PDX); assay type: in vivo, mouse
Method: NSG NOD.Cg-PrkdcscidIj2rgtm1Wjl/SzJ mice (6-8 weeks of age) were injected with patient-derived castration-resistant prostate tumor cells (model #PR6511, Crown Bioscience UK Ltd Hillcrest, Osgathorpe Leicestershire, UK). The cells were inoculated subcutaneously into the left flank of 40 male NSG mice. When tumors reached a mean volume of approximately 100 mm^3 (i.e. 100 mm^3+/−54 mm^3, FIG. 3), mice were randomly assigned to five treatment groups of each eight mice (TABLE 9). Body weights were measured three times weekly prior to the initiation of dosing and daily thereafter. Tumor burden was assessed by caliper measurement three times weekly. Dosing breaks were applied when tolerability issues arose (body weight loss>10). Upon completion of the scheduled dosing phase at day 57, tumor outgrowth was monitored for groups 3, 4 and […] up to study day 77. Groups 1 and 2 were terminated on study day 57. Results of the experiment are shown in TABLES 10 and 11; and FIGS. 3 and 4. The experiment was performed in the Crown Bioscience Ltd. testing facility (Crown Bioscience UK Ltd Hillcrest, Dodgeford Lane, Osgathorpe Leicestershire LE12 9TE, UK).

[5] = system: MKN45 human gastric adenocarcinoma cells; assay: Cell-derived xenograft mouse model for gastric cancer (MKN45 CDX); assay type: in vivo; conditions: 12 mg/kg, QW, i.v.
Method: as §1, with “(8-9” for “(7-9”, “MKN45” for “SiHa”, “gastric adenocarcinoma” for “HPV16-positive (Human Papillomavirus type 16) cervical cancer”, “103” for “111”, “16).” for “18).”, “CHN).” for “CHIN).”

[6] = 1 mg/kg, BID, listed as Compound 248
[7] = p.o. QD, 30 mg/kg, groups of eight mice

SMILES | Tumor Size day 37 ([1]; 3 mg/kg, BID) | T/C ([1]; 3 mg/kg, BID) | mean TV ([2]; Day 33) | mean TV ([2]; Day 35) | mean TV ([2]; Day 38) | mean TV ([2]; Day 41) | mean TV ([2]; Day 45) | mean TV ([2]; Day 49) | mean TV ([2]; Day 53) | mean TV ([2]; Day 56) | mice tumor-free at the end of the observation period [3] | mean TV ([3]; day 13) | mean TV ([3]; day 15) | mean TV ([3]; day 18) | mean TV ([3]; day 21) | mean TV ([3]; day 25) | mean TV ([3]; day 29) | mean TV ([3]; day 33) | mean TV ([3]; day 36) | further results
CC(C)C[C@@H]1NCCN([C@@H](CC(C)C)C(=O)N2CCC3(C[C@@H]2C)OCC(CN2CCCC2)CO3)C1=O (stereo partly drawn) [Compound 248, (S)-1-[(S)-1-({(S)-8-Methyl-3-[(1-pyrrolidinyl)methyl]-1,5-dioxa-9-aza-9-spiro[5.5]un-decyl}carbonyl)-3-methylbutyl]-3-isobutyl-2-piperazinone] | 178 ± 27 mm^3 | 19% | 0.1159 cm^3 | 0.1248 cm^3 | 0.1389 cm^3 | 0.1093 cm^3 | 0.1794 cm^3 | 0.2398 cm^3 | 0.2964 cm^3 | 0.2569 cm^3 | tumor-free | 0.1064 cm^3 | 0.0958 cm^3 | 0.0916 cm^3 | 0.0511 cm^3 | 0.0499 cm^3 | 0.0288 cm^3 | 0.0068 cm^3 | 0.0041 cm^3 | Tumor Size day 37 [1, 6]: 586 ± 82 mm^3; T/C [1, 6]: 62.6%; Tumor Size day 37 ([1]; 6 mg/kg, QD): 238 ± 37 mm^3; T/C ([1]; 6 mg/kg, QD): 25.4%
CC(C)C[C@H]1C(=O)N([C@@H](CC(C)C)C(=O)N2CCC3(C[C@@H]2C)OCC(CN2CCCC2)CO3)CCN1C (stereo partly drawn) [Compound 273, (S)-1-[(S)-1-({(S)-8-Methyl-3-[(1-pyrrolidinyl)methyl]-1,5-dioxa-9-aza-9-spiro[5.5]un-decyl}carbonyl)-3-methylbutyl]-3-isobutyl-4-methyl-2-piperazinone] | 942.0 ± 114.9 mm^3 | 79.3% | – | – | – | – | – | – | – | – | tumor-free | 0.1063 cm^3 | 0.1073 cm^3 | 0.0948 cm^3 | 0.0875 cm^3 | 0.0451 cm^3 | 0.0194 cm^3 | 0.0056 cm^3 | 0.0031 cm^3 | –
CC(C)C[C@@H]1NCCN([C@@H](CC(C)C)C(=O)N2CCC(CCN3CCC4(CC3)CC4)CC2)C1=O [Compound 282, (S)-1-[(S)-1-[(4-{2-(6-Aza-6-spiro[2.5]octyl)eth-yl}-1-piperidyl)carbonyl]-3-methylbutyl]-3-isobutyl-2-piperazinone] | – | – | 0.1161 cm^3 | 0.1308 cm^3 | 0.1751 cm^3 | 0.2086 cm^3 | 0.3560 cm^3 | 0.4920 cm^3 | 0.6364 cm^3 | 0.6558 cm^3 | – | 0.1073 cm^3 | 0.1061 cm^3 | 0.1040 cm^3 | 0.0971 cm^3 | 0.1111 cm^3 | 0.1030 cm^3 | 0.1273 cm^3 | 0.1185 cm^3 | –
CC(C)C[C@@H]1NCCN([C@@H](CC(C)C)C(=O)N2CCC3(C[C@@H]2C)OCC(CN2CCC2)CO3)C1=O (stereo partly drawn) [Compound 318, (S)-1-[(S)-1-({(S)-3-[(1-Azetidinyl)methyl]-8-methyl-1,5-dioxa-9-aza-9-spiro[5.5]undecyl}car-bonyl)-3-methylbutyl]-3-isobutyl-2-piperazinone] | 351 ± 68 mm^3 | 37.5% | – | – | – | – | – | – | – | – | – | – | – | – | – | – | – | – | – | –
CNC(=O)c1ccc(N2C(=S)N(c3ccc(C#N)c(C(F)(F)F)c3)C(=O)C2(C)C)cc1F [Enzalutamide, enzalutamide, reference compound] | – | – | – | – | – | – | – | – | – | – | – | – | – | – | – | – | – | – | – | TWO-WAY ANOVA p (tumor size at the end of the study) vs. Vehicle ([4]; 30 mg/kg p.o. QD, n.s. = not significant): n.s.; CR (complete regression) = number of mice [4, 7]: 0; PR (partial regression) = number of mice [4, 7]: 0; TFS (Tumor Free Survival) = number of complete regressions recorded up to Group Day End [4, 7]: 0
CC(=O)O[C@H]1C(=O)[C@@]2(C)[C@H]([C@H](OC(=O)c3ccccc3)[C@]3(O)C[C@H](OC(=O)[C@H](O)[C@@H](NC(=O)c4ccccc4)c4ccccc4)C(C)=C1C3(C)C)[C@]1(OC(C)=O)CO[C@@H]1C[C@@H]2O [Paclitaxel, paclitaxel, reference compound] | – | – | – | – | – | – | – | – | – | – | – | – | – | – | – | – | – | – | – | Tumor Size day 29 ([5]; MKN45 CDX, female BALB/c nude mice, Mean ± SEM): 554.9 ± 52.8 mm^3; T/C ([5]; day 29, tumor-to-control ratio (volume/volume)): 46.6%
